Data on 6 compounds can be found in US20060100153A1, “HSulf-1 nucleic acids, polypeptides and methods of using” (Mayo Foundation for Medical Education and Research, a …, priority 2003, published 2006).

Where a SMILES comes first, the peptide text is derived from it. The star is where a group is joined. Cbz = O=C(OCc1ccccc1)*; CH2F = FC*

The subject of one test is hSulf1 expression. The test is described as follows: Treatment with DNA methylation inhibitor, semi-quantitative RT-PCR of hSulf1. The test is classed as cell-based. The conditions noted are these: SNU449 and Huh-7 cell lines; increasing concentrations (0, 5, or 10 μM), 5 days. As to the method:
Isolation of total RNA, semi-quantitative RT-PCR, and quantitative real-time PCR: Total RNA was extracted from 31 pairs of matched HCCs and adjacent benign liver tissue and the 11 HCC cell lines using the RNEASY® kit (Qiagen). cDNA synthesis was performed using SUPERSCRIPT® II RNase H reverse transcriptase (Invitrogen/Life Technologies) to transcribe 1-5 μg of total RNA primed with 1 μl of 500 μg/ml random hexamers. Primers used for semi-quantitative RT-PCR were: hSulf1-F (5′-[…]-3′; […]) and hSulf1-R (5′-[…]-3′; SEQ ID NO:14), yielding an 826 bp PCR product; GAPDH-F (5′-[…]-3′; SEQ ID NO:15) and GAPDH-R (5′-[…]-3′; SEQ ID NO:16). […] For quantitative real-time PCR analysis of HCC tumors, the hSulf1 primers were hSulf1RT-F (5′- […]-3′; SEQ ID NO:39) and hSulf1RT-R (5′-[…]-3′; SEQ ID NO:40), yielding a 379 bp PCR product. Real-time PCR was performed according to the manufacturer's recommendation in a Roche LightCycler using the following profile: 95° C. for 90 seconds followed by 34 cycles of 0 seconds at 95° C., 10 seconds at 61° C., and 20 seconds at 72° C. hSulf1 mRNA levels were normalized by comparison to 18S ribosomal RNA levels measured in the same samples. […]
Treatment with the DNA methylation inhibitor, 5-aza-2′-deoxycytidine. […] RNA (2 μg) was reverse transcribed as described above and semi-quantitative RT-PCR performed as described. […]

Test [1] deals with Hep3B and Huh-7-derived clones. The test is described as follows: Cisplatin-induced apoptosis in Hep3B and Huh-7 derived clones. The format is cell-based. The note with it: hSulf1-transfected vs Vector stable clones; 5 μM cisplatin. Here is the method: Detection and quantitation of apoptosis: Apoptosis was quantitated by assessing nuclear changes indicative of apoptosis (i.e., chromatin condensation and nuclear fragmentation) using the DNA binding dye DAPI as described by Roberts et al. (supra). Cells were seeded in 35-mm plates at 2×10^5 cells per well. After incubation for 24 hours, the plates were washed, changed to serum free medium containing 1 μM staurosporine, and incubated for 5 hours at 37° C. Five micrograms of DAPI were added and the plates were incubated for 20 minutes at room temperature in the dark. The cells were then examined by fluorescence microscopy (Nikon Eclipse TE200; […] For each treatment, at least 300 cells in six different high-power fields were counted. […] For experiments using cisplatin, cells cultured in medium with 10% serum were treated with or without 5 μM cisplatin for 24 hours, then stained with DAPI and counted.

The test system of test [2] is SNU182, SNU475 and SNU449 HCC cell lines. Put plainly: Detection and quantitation of apoptosis in SNU449, SNU182 and SNU475 HCC cell lines. The note with it: for cisplatin-induced apoptosis: 5 μM, 24 hours; for staurosporine-induced apoptosis: 1 μM, 5 hours. The format is cell-based. Here is the method: Detection and quantitation of apoptosis: Apoptosis was quantitated by assessing nuclear changes indicative of apoptosis (i.e., chromatin condensation and nuclear fragmentation) using the DNA binding dye DAPI as described by Roberts et al. (supra). Cells were seeded in 35-mm plates at 2×10^5 cells per well. After incubation for 24 hours, the plates were washed, changed to serum free medium containing 1 μM staurosporine, and incubated for 5 hours at 37° C. Five micrograms of DAPI were added and the plates were incubated for 20 minutes at room temperature in the dark. The cells were then examined by fluorescence microscopy (Nikon Eclipse TE200; […] For each treatment, at least 300 cells in six different high-power fields were counted. […] For experiments using cisplatin, cells cultured in medium with 10% serum were treated with or without 5 μM cisplatin for 24 hours, then stained with DAPI and counted. Flow cytometry also was used to evaluate apoptosis. After a 5 hour treatment with 1 μM staurosporine as described above, cells were collected by centrifugation and washed twice in ice-cold PBS with 3% heat-inactivated FBS and 0.02% sodium azide. Cells were stained with 50 μg/ml 7-AAD for 15 minutes in the dark. The cells were resuspended in 500 μl PBS and analyzed using a FACScan analyzer (BD Bioscience). Apoptotic cells were calculated as percent of 7-AAD positive cells in 5,000 or more cells per sample. Immunoblot analysis for mitochondrial cytochrome c release: Immunoblot analysis for cytochrome c utilized cytosolic extracts prepared by selective digitonin permeabilization (Leist et al. (1998) Mol. Pharmacol. 54:789-801). Blots were probed with mouse monoclonal anti-cytochrome c antibody (BD Pharmingen) or mouse anti-β-actin antibody. For caspase 9, whole-cell lysates were prepared as described above for the sulfatase assay. Membranes were probed with mouse anti-procaspase 9 or mouse anti-β-actin antibody. Immunoblots were developed using ECL enhanced chemiluminescence reagents after incubation with horseradish peroxidase-conjugated secondary antibodies.

For another test, the system named is OV207 clones. The test is described as follows: Drug sensitivity of OV207 clones transfected with HSulf-1. The test is classed as cell-based.
Another test has as its system SKOV3 cells. Put plainly: Analysis of apoptosis (DAPI fluorescence microscopy, DNA fragmentation, 7-AAD flow cytometry, cytochrome c) in SKOV3 cells. The test is classed as cell-based. On the set-up: apoptosis, % of cells: dose or concentration left out as unconfirmed. Here is the method:
Analysis of Apoptosis: […] HSulf-1 transfected SKOV3 cells were seeded in 35-mm plates at a density of 2×10^5 cells/well. After incubation at 37° C. for 24 hours, the plates were washed and changed to serum-free medium. Staurosporine was added to a final concentration of 1 μm for 5 hours. DAPI was then added to each well. After a 20 minute incubation at room temperature in the dark, cells were examined by fluorescence microscopy (Nikon Eclipse TE200; Nikon Corp., Tokyo, Japan) using excitation and emission filters of 380 and 430 nm. An individual blinded to the experimental conditions counted at least 300 cells in six different high-power fields for each treatment. Each treatment was repeated at least three times in triplicate. […] The significance of differences between experimental variables was determined using the Student t test. DNA Fragmentation: Parental, vector and stable HSulf-1 clones 3 and 6 were treated with 1 μM staurosporine at 37° C. for 5 hours. Control or treated cells (5×10^5 cells) were harvested with trypsin and centrifuged. DNA was extracted using the Qiagen […]® kit. Aliquots containing 5 μg of DNA were resolved on a 1.5% agarose gel containing 0.5 μg/ml ethidium bromide and visualized under UV light. Flow Cytometry: After treatment with 1 μM staurosporine for 5 hours as described above, cells were washed twice in ice cold PBS containing 3% heat-inactivated fetal bovine serum and 0.02% sodium azide, stained with 7-aminoactinomycin D (7-AAD; 50 μg/ml) for 15 minutes in the dark, resuspended in 500 μl PBS, and subjected to flow cytometry on a FACScan analyzer (BD Bioscience, San Jose, Calif.). After analysis of 10,000 events, the percentage of 7-AAD positive cells was determined. Analysis of Cytosolic Cytochrome c: Parental SKOV3, stable clones of SKOV3-vector, and SKOV3-HSulf-1 clones 3 and 6 were treated with staurosporine as described above, washed in PBS, and incubated for 30 seconds in lysis buffer consisting of 210 mM D-mannitol, 70 mM sucrose, 10 mM HEPES, 5 mM sodium succinate, 0.2 mM EGTA, 0.15% BSA and 80 μg/ml digitonin. After sedimentation at 12,000×g for 1 minute, the supernatant was diluted with an equal volume of 2×sample buffer. The protein samples were quantified, resolved on a 12% SDS-PAGE gel, and subjected to immunoblot analysis as described below using anti-cytochrome c (mouse monoclonal; BD Pharmingen, San Diego, Calif.) at a dilution of 1:500.

A further test has as its system 012SCC cells. Put plainly: Analysis of apoptosis (DAPI, 7-AAD flow cytometry) in 012SCC cells. The test is classed as cell-based. The conditions noted are these: 1 μM, 5 hours. Here is the method: Analysis of Apoptosis: Apoptosis was quantitated by assessing the number of cells containing nuclear changes indicative of apoptosis (chromatin condensation and nuclear fragmentation) after staining with DAPI. HSulf-1 transfected 012SCC cells were seeded in 35-mm plates at a density of 2×10^5 cells/well. After incubation at 37° C. for 24 hours, the plates were washed and changed to serum-free medium. […] After a 5 hour incubation for staurosporine and a 24 hour incubation for cisplatin at 37° C., DAPI was added to each well at a final concentration of 5 μg/ml. After a 20 minutes incubation in the dark at 37° C., cells were examined by fluorescence microscopy (Nikon Eclipse TE200; Nikon Corp., Tokyo, Japan) using excitation and emission filters of 380 and 430 nm. An individual blinded to the experimental conditions counted at least 300 cells in six different high-power fields for each treatment. Each treatment was repeated at least three times, performed in triplicate each time. The significance of differences between experimental variables was determined using the Student t test. Detection of Apoptosis by Flow Cytometry: HSulf-1-1 or vector transfected 012SCC cells were collected by centrifugation from untreated control and staurosporine treated cells. […] The cells were then resuspended in 500 μl of PBS and analyzed by FACScan (BD Bioscience). […]
In general terms: In flow cytometry, cells or beads pass a laser one at a time.

For another test, the system named is cancer cells. The conditions noted are these: previous studies; cited from earlier work.
Another test deals with xenografts. The note with it: in vivo, previous studies; cited from earlier work.

Consider `Nc1ncn([C@H]2C[C@H](O)[C@@H](CO)O2)c(=O)n1` [5-aza-2′-deoxycytidine], for which the hSulf1 expression entry in the test on hSulf1 expression is recorded as “reactivation of hSulf1 expression”.
With `N.N.[Cl][Pt][Cl]` [cisplatin], the cisplatin-induced apoptosis entry in test [1] is reported as “increasing sensitivity”; in test [2] (SNU182 and three hSulf1-transfected stable clones) it was “high sensitivity”; in test [2] (parental SNU449 and SNU449-Vector), “resistant”. Further, the sensitivity to drug entry in the test with OV207 clones is recorded as “increased sensitivity”. Moreover, the “apoptosis, % of cells” value with SKOV3 cells (HSulf-1-transfected cells, cisplatin, 24 hours) is on record as 25-40%. Besides, the induction of apoptosis result in the test with SKOV3 cells (parental or vector-transfected cells, cisplatin, 24 hours) is on record as “little apoptosis”.
In the case of `CN[C@@H]1C[C@H]2O[C@@](C)([C@@H]1OC)n1c3ccccc3c3c4c(c5c6ccccc6n2c5c31)C(=O)NC4` [staurosporine], the staurosporine-induced apoptosis entry was “large increase in apoptosis” in test [2] (SNU182 and SNU475 (high hSulf1-expressing)); “minimal sensitivity” in test [2] (hSulf1 negative parental SNU449 and SNU449-Vector); “high sensitivity” in test [2] (three hSulf1-transfected SNU449 clones). The “apoptosis, % of cells” value in the test on 012SCC cells (HSulf-1-transfected cells) was determined as 40%. In addition, the induction of apoptosis result with 012SCC cells (parental or vector-transfected cells) is “little apoptosis”; with SKOV3 cells (SKOV3 clones stably transfected with HSulf-1, 1 μM, 5 hours) it was “markedly enhanced caspase-dependent apoptosis”; with SKOV3 cells (parental or vector-transfected SKOV3, 1 μM, 5 hours), “no induction of apoptosis”. Further, in the test on OV207 clones, the sensitivity to drug entry was “increased sensitivity”.
In the case of `COC(=O)CC(NC(=O)C(C)NC(=O)C(NC(=O)OCc1ccccc1)C(C)C)C(=O)CF` (stereo not drawn) [Z-VAD(O-Me)-fmk, N-(N^α-benzyloxycarbonylvalinylalanyl) aspartic acid (O-methyl ester) fluoromethylketone] (Cbz-Val-Ala-Asp(OMe)-CH2F; configuration not given here), the “effect on staurosporine-induced apoptosis” value in test [2] (40 μM pretreatment for 1 hour before staurosporine) is “inhibited staurosporine-induced apoptosis”.
Consider `COc1cc2ncnc(Nc3ccc(F)c(Cl)c3)c2cc1OCCCN1CCOCC1` [Iressa], for which the “sensitization to chemotherapeutic drugs in vitro” value with cancer cells was “sensitizes cancer cells to cisplatin, paclitaxel and topotecan”. The “response of xenografts to combination” value in the test with xenografts was “enhance response of xenografts to cisplatin or paclitaxel”.
Take `COc1cccc(-c2cc(=O)c3ccccc3o2)c1N` [PD98059]: the “sensitization to chemotherapeutic drugs in vitro” value with cancer cells is “sensitizes a variety of cell lines, including ovarian cancer cell lines, to cisplatin and paclitaxel”.
